Consider two substances from patent US8475800B2, “Phosphorylated derivatives of a U1-70K peptide and their use in the treatment of autoimmune pathologies” (Centre National de la Recherche Scientifique, priority 2001, dated 2013).

Square brackets hold non-standard residues; d marks the D form. Ends that are not written are not given here. pS = N[C@@H](COP(=O)(O)O)C(=O)O

In assay [1] the test system is pre-autoimmune MRL/lpr mice. The assay can be described thus: Administration to pre-autoimmune MRL/lpr mice, monitoring of disease development. The assay is classed as in vivo. The protocol: The two peptides (phosphorylated in position 140 and non-phosphorylated) were used for a study of restoration of self-tolerance. These two peptides were injected by intravenous and intra-nasal route into preautoimmune mice, and the development of the disease in these mice was monitored.

For assay [2], the system named is HLA-DR4. The assay can be described thus: Binding to human MHC class II molecule HLA-DR4. Conditions: peptide 0.01-100 μM; FIG. 19. Here is the method: (§1) FIG. 19: binding of the 131-151 and P140 peptides to the human major histocompatibility complex class II molecules; the results are expressed as a percentage of binding of the peptides to the HLA-DR1, -DR4 and DR11 molecules; the percentage inhibition is calculated as a function of the O.D. values measured in the presence of various concentrations of 131-151 and P140 peptides (0.01-100 μM).

In assay [3] the test system is CD4+ T cells of MRL/lpr lupic mice. In words: Recognition by CD4+ T cells of MRL/lpr lupic mice (ex vivo proliferation, IL-2 secretion). The assay is classed as cell-based. The protocol:
(§2) FIG. 1: recognition of the 131-151 peptide of the 70K protein by the CD4+ T cells of MRL/lpr (right column) or NZB/W lupic mice (left column); the peptide concentrations are indicated on the x-axis, the proliferation of the CD4+ T cells of MRL/lpr and BW mice, represented on the y-axis of the graphs of the first line, is measured ex vivo in the presence of the various concentrations of 131-151 peptide of the 70K protein; the proliferation is expressed in stimulation indices corresponding to the radioactivity incorporated in the DNA of the cells (in counts per minute) in the presence of peptide on the incorporation of radioactivity in the absence of peptide; the secretion of IL-2, represented on the y-axis of the graphs of the second line, is measured in the supernatants after 24 hrs of culture by a bio-assay; the IL-2 concentration is determined with a standard range of recombinant IL-2 and is expressed in mU/ml.
(§3) FIG. 13: recognition of the P140 peptide by the CD4^+ T lymphocytes (A) of MRL/lpr lupic mice; the graph on the left represents the proliferation of CD4^+ T cells expressed in stimulation indices as defined above in the presence of the 131-151 peptide, of the phosphorylated P137 and P140 peptides and of two scrambled peptides, phosphorylated or not phosphorylated (Sc and ScP); the positivity limit corresponds to 2.0; the graph on the right represents the secretion of IL-2 (mU/ml) in the presence of the 131-151 peptide, the P137 and P140 peptides and the Sc and ScP peptides; and by the antibodies (B) of MRL/lpr lupic mice; the results are expressed in titre of antibodies corresponding to the dilution allowing an O.D. value at 450 nm equal to 0.2 to be obtained in an ELISA test.

Assay [4] has as its system antibodies of MRL/lpr lupic mice. In words: Recognition by antibodies of MRL/lpr lupic mice (ELISA titre). The assay is classed as binding. Conditions: compared with the non-phosphorylated parent peptide; FIG. 13.
From the text: as §3
A general note: An ELISA detects its analyte on a solid surface through an enzyme-linked reagent.

The subject of assay [5] is HLA-DR11. In words: Binding to human MHC class II molecule HLA-DR11. Conditions: peptide 0.01-100 μM; FIG. 19. The protocol:
as §1

Assay [6] deals with HLA-DR1. The assay can be described thus: Binding to human MHC class II molecule HLA-DR1. The settings on record: peptide 0.01-100 μM; FIG. 19. Here is the method:
as §1

In assay [7] the test system is antibodies of MRL/lpr lupic mice. Conditions: among 20 overlapping peptides of the 70K protein; cited from earlier work.
In assay [8] the test system is CD4+ T cells of NZB/W lupic mice. In words: Recognition by CD4+ T cells of NZB/W lupic mice. The assay is classed as cell-based. Conditions: FIG. 1. Here is the method:
as §2

Assay [9] deals with major histocompatibility complex class II molecules (I-E^k, I-A^k, I-E^d, I-A^d). The assay can be described thus: Binding to murine MHC class II molecules (transfected fibroblasts, T hybridoma IL-2 competition). The assay is classed as cell-based. Conditions: murine (and human, as worded in b8); FIG. 2. Here is the method: FIG. 2: binding of the 131-151 peptide to the molecules of the major histocompatibility complex of class II murines (I-E^k, I-A^k, I-E^d, I-A^d); fibroblasts transfected by the molecules I-E^k, or I-A^k, or I-E^d, or I-A^d are pre-incubated with different concentrations of the 131-151 peptide; after 30 minutes at 37° C., the 12-26CI or 16-33 analogue peptides of the β2-adrenergic receptor, as well as the respective T hybridomas which recognize these peptides in the adapted context (8I for I-E^k, E7E9 for I-A^k, 26.1 for I-E^d, and 26.2 for I-A^d) are added; the supernatants are recovered after 24 hrs of culture and the secretion of IL-2 is evaluated as previously; the results are expressed as a % inhibition representing the ability of the 131-151 peptide to inhibit the binding of the 12-26 CI and 16-33[…]2 analogue peptides to the class II molecules.

Setting [10] is: intravenous route, pre-autoimmune MRL/lpr mice, FIG. 14.
[11] abbreviates: in vitro, CD4+ T cells purified from the ganglia of MRL/lpr mice.

Regarding “P140: sequence SEQ ID NO: 1 (RIHMVYSKRSGKPRGYAFIEY) in which the serine in position 10 is phosphorylated (RIHMVYSKR[pS]GKPRGYAFIEY; listed as Homo sapiens)”, the appearance of glomerulonephritis result in [1] (intranasal route, pre-autoimmune MRL/lpr mice, FIG. 14) is on record as “not by intranasal route”. Moreover, in [1] (setting [10]), the appearance of glomerulonephritis entry is given as “delays the appearance of glomerulonephritis”, the “production of antibodies directed against the DNA” value is recorded as “reduces the production of large numbers of antibodies directed against the DNA” and the survival of animals entry is “prolongs the survival of animals”. In addition, the “binding to HLA-DR4” value in assay [2] was “capable of binding”. In [3] (compared with the non-phosphorylated parent peptide, FIG. 13), the “recognition by the CD4+ T cells of lupic mice” value is “to the same extent as or even to a greater extent than the non-phosphorylated peptide”. In assay [4], the “recognition by the antibodies of lupic mice” value is given as “to the same extent as or even to a greater extent than the non-phosphorylated peptide”. Also, in [5], the “binding to HLA-DR11” value is reported as “capable of binding”. For the same substance, in [6], the “binding to HLA-DR1” value was “capable of binding”.

For “RIHMVYSKRSGKPRGYAFIEY (listed as Homo sapiens) [131-151]”, the proteinuria result in assay [1] (group injected with the peptide, versus saline control) was “hardly reduced”. In addition, the “effect of administration on anti-DNA antibodies, glomerulonephritis and survival” value in assay [1] (pre-autoimmune mice, listed as parent peptide) is listed as “does not on the other hand induce any statistically significant effect”. For the same substance, the mice survived in assay [1] (to 35 weeks, p=0.2 compared to the control mice) was determined as 25%. The “binding to HLA-DR4” value in assay [2] was “capable of binding”. In assay [3] (setting [11]), the “proliferation of CD4+ T cells” value is recorded as “capable of stimulating” and the “secretion of IL-2 by CD4+ T cells” value is “capable of stimulating”. The “recognition by the antibodies of MRL/lpr lupic mice” value in assay [7] is given as “recognized very early”. For the same substance, the “epitope of the 70K protein in the NZB/W mouse” value in assay [8] is given as “major epitope”. The “binding to major histocompatibility complex class II molecules” value in assay [9] is recorded as “capable of binding”. In assay [5], the “binding to HLA-DR11” value is recorded as “capable of binding”. Further, in assay [6], the “binding to HLA-DR1” value is given as “capable of binding”.
